# Experimental data as given in PMC6028453, “BrlR from Pseudomonas aeruginosa is a receptor for both cyclic di-GMP and pyocyanin” (Nature Communications, 2018).
# “And” between values parts separate entries of the source, which are not always exact repeats. Equal values may be shown once.
# What was measured:
# brlR transcription = experiment: qRT-PCR of brlR transcript; type: cell-based, P. aeruginosa PAO1
# Description: PAO1 WT strains were grown under different conditions. For c-di-GMP effects, overexpression of PA4843 in PAO1 (PAO1/pHERD20T-PA4843) relative to WT cells (PAO1/ pHERD20T) was determined. When P. aeruginosa strains entered mid-log phase, arabinose was added to induce gene expression. To test pyocyanin’s effect, a P. aeruginosa PAO1 WT strain cells with high pyocyanin production was determined relative to a ΔphzA1-G1/phzA2-G2 strain not producing phenazine and a ΔphzMSH strain not producing pyocyanin.
# Total RNA was extracted using a MiniBEST Universal RNA Extraction Kit (TaKaRa) and cDNA synthesis was performed using a PrimeScript RT reagent Kit (TaKaRa). Primers for RT-PCR listed in Supplementary Table 1 were designed using the program PrimerExpress (Applied Biosystems). The RT-PCR reactions were performed on a CFX96 Real-Time PCR Detection System (Bio-Rad) using SYBR Premix Ex Taq™ (TaKaRa). Expression of the target genes was normalized to the expression of 16 S RNA. The relative transcript abundance was calculated according to the 2^−ΔΔCt method. Five biological replicates were performed per sample. The data were analyzed with a one-tailed t-test (***P ≤ 0.001).
# BrlR-DNA binding (PbrlR) = molecular target: T1, BrlR-DNA binding (PbrlR) (Pseudomonas aeruginosa, UniProt Q9HUT5); experiment: EMSA, wild-type BrlR with PbrlR DNA; type: biochemical
# T1 construct: His6-SUMO (N, cleaved yes); made in house; host or cells: E. coli BL21 DE3
# T1 sequence (Q9HUT5 whole entry): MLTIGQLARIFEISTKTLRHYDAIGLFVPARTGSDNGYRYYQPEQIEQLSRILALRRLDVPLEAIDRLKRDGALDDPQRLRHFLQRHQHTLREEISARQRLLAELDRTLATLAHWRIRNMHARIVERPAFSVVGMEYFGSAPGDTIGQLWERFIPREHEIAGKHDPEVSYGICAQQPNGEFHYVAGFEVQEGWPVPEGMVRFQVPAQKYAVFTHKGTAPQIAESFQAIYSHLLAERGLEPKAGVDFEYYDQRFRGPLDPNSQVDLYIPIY
# Description: (§1) A 6-carboxy-fluorescein (FAM)-labeled 36-bp brlR promoter DNA (PbrlR) or 80-bp mexA/mexE promoter DNA (PmexA/PmexE) probes (~0.375 pmol), BrlR protein and varying amounts of inducers were incubated in binding buffer (10 mM Tris HCl [pH 7.4], 50 mM KCl, 1 mM DTT, […] and 5 ng/mL poly [dI-dC]) for 60 min at 25 °C. Finally, glycerol was added to a concentration of 6.5%. The samples were subjected to a 5% polyacrylamide gel electrophoresis and run in 0.5 × Tris-borate-EDTA buffer at 80 V for 1 h at room temperature. Imaging and data analyses were performed using a Typhoon Scanner (GE Healthcare) and Imagequant software. The probes used are listed in Supplementary Table 1.
# [1] = molecular target: Per-Arnt-Sim (PAS) domain of PA14_07500 (RmcA); parameters: method as in earlier work; details: intrinsic fluorescence quenching method; ref 4 (Okegbe et al., 2017) of response letter; cited from earlier work
# BrlR [2] = molecular target: T2, BrlR (Pseudomonas aeruginosa, UniProt Q9HUT5); experiment: Surface plasmon resonance (SPR) analysis; type: binding
# T2 construct: His6-SUMO (N, cleaved yes); made in house; host or cells: E. coli BL21 DE3
# T2 sequence (Q9HUT5 whole entry): as above
# Description: The binding affinity of diverse toxic compounds for BrlR were investigated by SPR using a BIAcore-T200 apparatus (GE Healthcare). The ligand, BrlR (20 μM in 10 mM sodium acetate, pH 4.5), was immobilized on an activated CM5 sensor chip by amine coupling (BIAcore) with 4400 response units (RU), and the unreacted sites were blocked with 1.0 M ethanolamine–HCl (pH 8.5). Steady-state binding analysis was performed with injections of different molecules at different concentrations over the immobilized BrlR surface at a flow rate of 20 μL min^−1 at 25 °C. Association was measured for 180 s, followed by 120 s of dissociation in running buffer (20 mM Hepes pH 7.5, 150 mM NaCl). The sensorgrams for specific interactions were obtained by subtracting the reference unimmobilized flow cell response from that of the sample. Since BrlR only has one binding site for pyocyanin or other toxic compounds (Fig. 5a–f), the kinetic analysis of the sensorgrams from analyte interaction with the immobilized BrlR was performed by fitting the binding curves to a 1:1 binding model. To determine the steady state KD values, equilibrium responses were plotted against analyte concentrations, and the resulting curves were fitted to the steady state model in the BIAevaluation software package, version 3.0 (GE Healthcare).
# BrlR Y249A DNA binding = molecular target: T3, BrlR Y249A DNA binding (Pseudomonas aeruginosa, UniProt Q9HUT5, Y249A); experiment: EMSA, BrlR Y249A with PbrlR; type: biochemical
# T3 construct: His6-SUMO (N, cleaved yes); made in house; host or cells: E. coli BL21 DE3
# T3 sequence (Q9HUT5 whole entry Y249A): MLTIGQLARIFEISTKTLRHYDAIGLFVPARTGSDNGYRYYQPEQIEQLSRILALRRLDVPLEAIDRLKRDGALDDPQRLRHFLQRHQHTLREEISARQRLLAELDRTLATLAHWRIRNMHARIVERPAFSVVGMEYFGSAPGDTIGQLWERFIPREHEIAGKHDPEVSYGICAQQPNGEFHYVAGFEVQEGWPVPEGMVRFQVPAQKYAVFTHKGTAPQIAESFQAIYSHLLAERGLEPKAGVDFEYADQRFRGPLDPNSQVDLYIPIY
# Description: (§2) It is unlikely that the larger drug molecules located in the canonical binding pocket can slide into the pyocyanin binding site and promote BrlR-DNA binding, as reflected by the EMSA results for tobramycin (Fig. 6a). To further verify the amino acid residues contributing to pyocyanin binding, many BrlR mutants were constructed. Whereas mutant E247A was insoluble, mutant F253R was not expressed, and mutant C173W was unstable. The binding affinity of Y183A and Y249A for pyocyanin were evaluated by using EMSA with a 36-bp PbrlR.
# as §1
# brlR [3] = system: brlR; parameters: method as in PMID 16879411; details: addition of pyocyanin to P. aeruginosa PA14 strain; cited from earlier work
# BrlR Y183A DNA binding = molecular target: T4, BrlR Y183A DNA binding (Pseudomonas aeruginosa, UniProt Q9HUT5, Y183A); experiment: EMSA, BrlR Y183A with PbrlR; type: biochemical
# T4 construct: His6-SUMO (N, cleaved yes); made in house; host or cells: E. coli BL21 DE3
# T4 sequence (Q9HUT5 whole entry Y183A): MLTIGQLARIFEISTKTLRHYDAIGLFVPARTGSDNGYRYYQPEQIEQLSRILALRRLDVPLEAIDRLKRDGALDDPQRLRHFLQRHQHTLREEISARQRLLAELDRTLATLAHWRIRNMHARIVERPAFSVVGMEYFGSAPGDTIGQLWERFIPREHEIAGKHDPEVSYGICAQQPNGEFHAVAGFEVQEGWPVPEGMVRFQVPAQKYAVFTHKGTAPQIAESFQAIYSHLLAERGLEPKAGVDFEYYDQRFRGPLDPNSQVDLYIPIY
# Description: as §2, §1
# ΔbrlR cells = experiment: Planktonic antibiotic susceptibility testing, ΔbrlR; type: cell-based, Pseudomonas aeruginosa; details: 50 μg/ml tobramycin 1 h, 0.2 mM pyocyanin
# Description: To determine the role of pyocyanin in antimicrobial susceptibility, P. aeruginosa strains (Supplementary Table 2) were grown at 37 °C in 20-fold diluted LB medium supplemented with or without 0.2 mM pyocyanin, which was purified from stationary phase cultures of PAO1. Tobramycin was added to the mid-log phase (OD600 = 0.8) cells suspension to a final concentration of 50 μg/ml; after 1 h, the broth was serially diluted and spread-printed onto LB agar (medium containing 300 μg/ml carbenicillin was used for the cells harboring plasmid) to determine the cell viability via CFU counts. The cell suspensions without tobramycin were set as controls. Susceptibility is expressed as a logarithmic reduction in CFU amount. The data were analyzed with a one-tailed t-test (***P ≤ 0.001).
# [4] = molecular target: T5, BrlR binding to PmexA and PmexE (Pseudomonas aeruginosa, UniProt Q9HUT5); experiment: EMSA, BrlR with PmexA and PmexE; type: biochemical; details: increasing concentrations of pyocyanin
# T5 construct: His6-SUMO (N, cleaved yes); made in house; host or cells: E. coli BL21 DE3
# T5 sequence (Q9HUT5 whole entry): as the sequence (Q9HUT5 whole entry) above
# Description: as §1
compound,measurement,setting,value
"Cn1c2cccc(=O)c-2nc2ccccc21 [pyocyanin, 5-N-methyl-1-hydroxyphenazine]","brlR expression level, PAO1 vs ΔphzA1-G1/phzA2-G2 strain",brlR transcription; PAO1 at high pyocyanin production vs strain not producing phenazine,~ 4.0 fold
same,"brlR expression level, PAO1 vs ΔphzMSH strain",brlR transcription; PAO1 at high pyocyanin production vs strain with no pyocyanin production,~ 5.3 fold
same,effect of c-di-GMP and pyocyanin together on BrlR-DNA binding,"BrlR-DNA binding (PbrlR); PbrlR, c-di-GMP, pyocyanin, and both",cooperatively enhance
same,DNA bound in the presence vs absence of pyocyanin,"BrlR-DNA binding (PbrlR); wild-type BrlR, PbrlR",5.47 fold
same,effect on BrlR-PbrlR DNA binding (in words),"BrlR-DNA binding (PbrlR); wild-type BrlR, increasing concentrations of compound",significant increase
same,Kd,[1],3 µM
same,binding affinity relative to tobramycin,BrlR [2]; SPR KD 4.5 μM vs 0.64 mM,~ 140 fold
same,Kd,"BrlR [2]; SPR, immobilized BrlR, steady state, 25 °C",4.52 µM and 4.5 µM
same,DNA bound in the presence vs absence of pyocyanin,BrlR Y249A DNA binding,4.15 fold
same,up-regulation of brlR,brlR [3],2.3 fold
same,DNA bound in the presence vs absence of pyocyanin,BrlR Y183A DNA binding,3.23 fold
same,viability of tobramycin-treated cells with vs without pyocyanin,ΔbrlR cells,no significant difference
same,effect on BrlR binding to PmexA and PmexE,[4],enhanced
